According to US20220143003A1, “COMPOSITIONS AND METHODS TO TREAT NON-ALCOHOLIC FATTY LIVER DISEASES (NAFLD)” (Coherus Biosciences, Inc., priority 2018, published 2022):

Experiments:
Type in all cases: in vivo, male C57BL/6JRj mice
DIO-NASH mice [1] = test: 4 h fasted plasma insulin (MSD platform); conditions: for 4 h fasted plasma insulin / Delta 4 h fasted plasma insulin week 12 vs baseline: group mean
Procedure: (§1) For plasma biochemistry, tail blood was drawn directly through the capillary of a Microvette/Vacuette of the right dimension and anticoagulant and mixed by inversion 5 times. Blood was placed at 4° C. until centrifugation at 3000×g for 10 minutes at 4° C. The plasma supernatants were transferred to new tubes and immediately frozen on dry ice and stored at −80° C. until analysis.
(§2) Mouse insulin was measured in single determinations using the MSD platform (Meso Scale Diagnostics).
4 h fasted plasma insulin (pg/mL) at baseline. Values expressed as mean of n=12-14+SEM.
4 h fasted plasma insulin (pg/mL) at week 12. Values expressed as mean of n=12-14+SEM.
Delta 4 h fasted plasma insulin (pg/mL) week 12 vs baseline. Values expressed as mean of n=12-14+SEM.

DIO-NASH mice [2] = test: Liver total cholesterol (TC) at termination; conditions: group mean
Procedure: The liver post-biopsy for histological analyses was removed by dissection from the left lateral lobe, fixated in 4% formalin for 20-24 h, and subsequently embedded in paraffin. Liver biopsies for liver triglycerides and total cholesterol were dissected from the medial lobe, snap frozen in liquid nitrogen, and stored at −80° C., while liver biopsies for hydroxyproline were dissected from the caudal lobe (the entire lobe), snap frozen in liquid nitrogen and stored at −80° C. Finally, a liver sample for RNA isolation and gene expression analysis was dissected from the left lateral lobe, snap frozen in liquid nitrogen, and stored at −80° C. until processing.
For liver TG and TC quantification, samples were homogenized, and TG and TC extracted in 5% NP-40 by heating twice to 90° C. The samples were centrifuged, and the TG and TC content measured in the supernatant, using commercial kits (Roche Diagnostics) on the Cobas c501 autoanalyzer according to the manufacturer's instructions.
Relative (mg/g of liver) liver total cholesterol (TC) at termination. Values expressed as mean of n=12-14+SEM.
Total (mg/liver) liver total cholesterol (TC) at termination. Values expressed as mean of […]+SEM.

DIO-NASH mice [3] = test: Plasma total cholesterol (TC) at termination; conditions: for Plasma total cholesterol (TC) at termination: group mean
Procedure: as §1, §2
Plasma total cholesterol (TC) at termination (mmol/L). Values expressed as mean of n=12-14+SEM.

DIO-NASH mice [4] = test: Liver Collagen 1A1 (Col1a1) IHC quantified by morphometry; conditions: for Relative terminal liver Col1a1 by morphometry / Total terminal Col1a1 (% fractional area multiplied with liver weight): group mean
Procedure: After surgery, the animals were evaluated daily on general health and body weight. […] The pre-biopsy was analyzed to evaluate liver steatosis score and fibrosis stage for study inclusion as outlined by Kleiner et al. (2005) (Table 1). In addition, liver Collagen 1a1 (Col1a1) quantified by morphometry was used to perform a stratified randomization of NASH-affected animals into study groups (see description of histopathological stains and analyses below).
Protein markers of fibrosis (Col1a1), fibrogenesis (α-SMA) and inflammation (Gal-3) were assessed by immunohistochemistry. α-SMA and collagen type I increase in regulation of quiescent hepatic stellate cell activation into myofibroblast-like cells where activated hepatic stellate cells are the main collagen producing cells in the liver (Carpino et al 2005, Hou and Syn 2018) whereas Gal-3 is involved in mediating inflammatory response and considered as a macrophage activation marker (Sciacchitano et al, 2018). For morphometric quantification of liver Col1a1 (using antibody from Southern Biotech, Cat. #1310-01), alpha-smooth muscle actin (α-SMA; using antibody from Abcam, Cat. #Ab124964) and Galectin-3 (using antibody from Biolegend, Cat. #125402), IHC staining was performed using standard procedures. Briefly, after antigen retrieval and blocking of endogenous peroxidase activity, slides were incubated with primary antibody. For all IHC stains, the primary antibody was detected using a polymeric HRP-linker antibody conjugate and visualized using DAB as chromogen. Finally, sections were counterstained in hematoxylin and cover-slipped before scanning.
Quantitative assessment of immunoreactivity is evaluated as follows. IHC-positive staining is quantified by image analysis using the Visiomorph software (Visiopharm, Denmark). Visiomorph protocols are designed to analyze the virtual slides in two steps: 1. Crude detection of tissue at low magnification (1× objective). The liver capsule is excluded. 2. Detection of IHC-positive staining (e.g. green; collagen 1 IHC), tissue (e.g. red) and fat (e.g. pink) at high magnification (10×objective). The quantitative estimate of IHC-positive staining is calculated as an area fraction (AF) according to the following formula:
Liver fibrosis (Col1a1%) at baseline. Values expressed as mean of n=12-14+SEM.
Terminal liver Collagen 1A1 (Col1a1) was quantified by morphometry. Relative Terminal liver Col1a1 (% fractional area) is expressed as mean of n=12-14+SEM.
Total terminal Col1a1 values are in milligrams (% fractional area multiplied with liver weight) and expressed as mean of n=12-14+SEM.

[5] = DIO-NASH mice, 12 weeks of treatment, summary of data
[6] = at baseline, CHS-131 High dose (alone or combined)
[7] = week 12, CHS-131 High dose (alone or combined)
[8] = CHS-131 High dose (alone or combined)

SMILES	4 h fasted plasma insulin (DIO-NASH mice [1]; [6])	4 h fasted plasma insulin (DIO-NASH mice [1]; [7])	Delta 4 h fasted plasma insulin week 12 vs baseline (DIO-NASH mice [1]; [8])	Relative liver total cholesterol (TC) at termination (DIO-NASH mice [2]; [8])	Total liver total cholesterol (TC) at termination (DIO-NASH mice [2]; [8])	Plasma total cholesterol (TC) at termination (DIO-NASH mice [3]; [8])	Relative terminal liver Col1a1 by morphometry (DIO-NASH mice [4]; [8])	Total terminal Col1a1 (% fractional area multiplied with liver weight) (DIO-NASH mice [4]; [8])	also measured
O=S(=O)(Nc1cc(Cl)c(Oc2cnc3ccccc3c2)c(Cl)c1)c1ccc(Cl)cc1Cl [CHS-131]	816 pg/mL	402 pg/mL	-414 pg/mL	12.3 mg/g of liver	39.2 mg/liver	6.38 mmol/L	6.77 % fractional area	220 milligrams	Plasma insulin, effect in words (DIO-NASH mice [1]; [5]): reduced; Decrease of fasting plasma insulin (DIO-NASH mice [1]; DIO-NASH mice, compared to DIO mice administered vehicle only, significant, dose response manner): 50%; 4 h fasted plasma insulin (DIO-NASH mice [1]; at baseline, CHS-131 Low dose): 703 pg/mL; 4 h fasted plasma insulin (DIO-NASH mice [1]; week 12, CHS-131 Low dose): 485 pg/mL; Delta 4 h fasted plasma insulin week 12 vs baseline (DIO-NASH mice [1]; CHS-131 Low dose): -219 pg/mL; Relative liver total cholesterol (TC) at termination (DIO-NASH mice [2]; CHS-131 Low dose): 12.4 mg/g of liver; Total liver total cholesterol (TC) at termination (DIO-NASH mice [2]; CHS-131 Low dose): 39.6 mg/liver; Plasma TC, effect in words (DIO-NASH mice [3]; [5]): reduced; Decrease of plasma cholesterol (DIO-NASH mice [3]; DIO-NASH mice, compared to DIO mice administered vehicle only, significant, not in a dose response manner): ~12%; Plasma total cholesterol (TC) at termination (DIO-NASH mice [3]; CHS-131 Low dose): 6.45 mmol/L; Decrease of terminal Collagen 1a1 (marker of fibrosis) (DIO-NASH mice [4]; DIO-NASH mice, compared to vehicle alone, trend): 15%; Relative terminal liver Col1a1 by morphometry (DIO-NASH mice [4]; CHS-131 Low dose): 6.64 % fractional area; Total terminal Col1a1 (% fractional area multiplied with liver weight) (DIO-NASH mice [4]; CHS-131 Low dose): 213 milligrams
OC[C@H]1O[C@@H](c2ccc(Cl)c(Cc3ccc(O[C@H]4CCOC4)cc3)c2)[C@H](O)[C@@H](O)[C@@H]1O [Empagliflozin, reference compound]	743 pg/mL	673 pg/mL	-69.9 pg/mL	12.6 mg/g of liver	43.2 mg/liver	7.62 mmol/L	7.31 % fractional area	250 milligrams	–
CSc1ccc(C(=O)/C=C/c2cc(C)c(OC(C)(C)C(=O)O)c(C)c2)cc1 [Elafibranor, reference compound]	644 pg/mL	297 pg/mL	-347 pg/mL	8.87 mg/g of liver	38.3 mg/liver	5.75 mmol/L	6.27 % fractional area	270 milligrams	–
